Values of other authors, collected in US20250089716A1, “IMMEDIATE-RELEASE PESTICIDE FORMULATION” (priority 2022, published 2025).

Details: extender component; unit not given
In the case of `[Cl-].[K+]` [Potassium chloride], the Water solubility is given as 34 g/100 ml. For `OC[C@@H](O)[C@@H](O)[C@H](O)[C@@H](O)CO` [Sorbitol], the Water solubility is given as 235 g/100 ml. In the case of `OC[C@H]1O[C@@](CO)(O[C@H]2O[C@H](CO)[C@@H](O)[C@H](O)[C@H]2O)[C@@H](O)[C@@H]1O` [Sucrose], the Water solubility is listed as 202 g/100 ml. In the case of `NC(N)=O` [Urea], the Water solubility is given as 100 g/100 ml. In the case of `O=C[C@H](O)[C@@H](O)[C@H](O)CO` [Xylose], the Water solubility is listed as 133 g/100 ml. For `[Cl-].[Cl-].[Zn+2]` [Zinc chloride], the Water solubility is listed as 395 g/100 ml. For Flactose, the Water solubility is listed as 375 g/100 ml.
